Test results from US5298621A, “Oligopeptide derivatives of ipoxantine endowed with immunomodulating activity and pharmaceutical compositions containing same” (Sigma-Tau Industrie Farmaceutiche Riunite S.p.A., priority 1990, dated 1994).

Test system: responders (thymus of C57B1/6) induced by stimulators (spleen of DBA/2)
Experiment: "In vitro-ex vivo" mixed lymphocyte reaction (MLR)
Set-up: species or system mice
Details: 25 mg/kg/day i.p. from day -5 to day -1
Protocol: Test 8 Assessment of the "in vitro-ex vivo" effect of ST 733, ST 754 and ST 789 on the mixed lymphocyte reaction (MLR).
Male DBA/2 mice (Charles River, Italy) aged 8 weeks were used as "stimulators" (4 animals per group); male inbred C57 B1/6 mice (Charles River, Italy) were used as "responders" (4 animals per group).
The compounds were administered i.p. from day -5 to day -1 (thymus excision of "responders" at day 0) 25 mg/kg/day.
The experimental procedure that was used is described by Hudson, L. and Hay, F. C., Practical Immunology, Blackwell Scientific Publication 290 (1980).

Compound: N=C(N)NCCC[C@H](NC(=O)OCCCCCn1cnc2c(=O)[nH]cnc21)C(=O)O [ST 789, N-5-(ipoxantin-9-yl) pentyloxycarbonylarginine, reference compound]
- Body weight: 22.1 ± 0.5 g
- Spleen weight: 82.7 ± 3.2 mg
- Thymus weight: 63.0 ± 7.9 mg
- ^3 H-TdR Incorporation (cpm ± S.E.) Non stimulated responders: 132.0 cpm
- ^3 H-TdR Incorporation (cpm ± S.E.) Stimulated responders: 9256 cpm
- Thymocytes No. (× 10^7) (pooled samples): 14.7 × 10^7
